In ChEMBL document CHEMBL1147675, “Optimization of subsite binding to the beta5 subunit of the human 20S proteasome using vinyl sulfones and 2-keto-1,3,4-oxadiazoles: syntheses and cellular properties of potent, selective proteasome inhibitors” (J Med Chem, 2006):
≈ marks a conversion by molar mass, not a printed value. Peptide text beside a SMILES is read from it. * marks the point of attachment. Cbz = O=C(OCc1ccccc1)*; OtBu = CC(C)(C)O*

Legend:
Cathepsin B = Cathepsin B (Homo sapiens, UniProt P07858)
Description: Inhibition of cathepsin B

Cathepsin S = Cathepsin S (Homo sapiens, UniProt P25774)
Description: Inhibition of cathepsin S

PC-3 = assay: cells; settings: Homo sapiens
Description: Antiproliferative activity against human PC3 cell line

in vitro = settings: human, plasma
Description: Stability in human plasma after 120 mins

physchem = settings: PBS, pH 7.4
Description: Solubility in PBS at pH 7.4

Sequence of Cathepsin S (P25774 whole entry): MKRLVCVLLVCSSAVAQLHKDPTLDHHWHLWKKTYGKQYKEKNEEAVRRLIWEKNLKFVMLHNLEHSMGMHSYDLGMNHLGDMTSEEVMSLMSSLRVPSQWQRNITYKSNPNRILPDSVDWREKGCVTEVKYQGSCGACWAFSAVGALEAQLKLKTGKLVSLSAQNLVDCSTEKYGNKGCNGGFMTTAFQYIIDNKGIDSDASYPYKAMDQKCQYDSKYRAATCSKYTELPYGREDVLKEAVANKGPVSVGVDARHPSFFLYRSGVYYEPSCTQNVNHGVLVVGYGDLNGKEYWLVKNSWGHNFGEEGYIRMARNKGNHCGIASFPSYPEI

For `CC[C@H](C)[C@H](NC(=O)OCc1ccccc1)C(=O)N[C@@H](COCc1ccccc1)C(=O)N[C@@H](C)C(=O)N[C@H](/C=C/S(C)(=O)=O)CC(C)C`, the IC50 (Cathepsin B) was 38 µM, the IC50 (Cathepsin S) was 35 µM and the IC50 (PC-3) was 0.45 µM. The remaining at 2 h (in vitro) was 83%.
With `Cc1ccc(S(=O)(=O)N[C@@H](CC(=O)NCC(C)(C)C)C(=O)N[C@@H](C)C(=O)NC(C)(C)C(=O)c2nnc(-c3ccccc3)o2)cc1` the solubility (physchem) was 249 µM (≈ 160 µg/mL) and the remaining at 2 h (in vitro) was 100%.
In the case of `CC[C@H](C)[C@H](NC(=O)OCc1ccccc1)C(=O)N[C@@H](CC(=O)NCC(C)(C)C)C(=O)N[C@@H](C)C(=O)N[C@H](/C=C/S(C)(=O)=O)CC(C)C`, the solubility (physchem) is reported as < 10 µM, the IC50 (PC-3) is reported as 0.2 µM and the remaining at 2 h (in vitro) is reported as 90%.
In the case of `CC[C@H](C)[C@H](NC(=O)OCc1ccccc1)C(=O)N[C@@H](CCC(=O)OC1CCCCC1)C(=O)N[C@@H](C)C(=O)N[C@H](/C=C/S(C)(=O)=O)CC(C)C`, the remaining at 2 h (in vitro) is reported as 0%.
`CC(C)C[C@@H](/C=C/S(C)(=O)=O)NC(=O)[C@H](CO)NC(=O)[C@H](CCC(=O)OC(C)(C)C)NC(=O)OCc1ccccc1` showed an IC50 (PC-3) of 3 µM.
In the case of `CC[C@H](C)[C@H](NC(=O)OCc1ccccc1)C(=O)N[C@@H](CCCC(=O)OC(C)(C)C)C(=O)N[C@@H](C)C(=O)N[C@H](/C=C/S(C)(=O)=O)CC(C)C`, the IC50 (Cathepsin B) is reported as 18 µM, the IC50 (Cathepsin S) is reported as 7.1 µM and the remaining at 2 h (in vitro) is reported as 20%.
Molecule `Cc1ccc(S(=O)(=O)N[C@@H](CC(=O)NCC(C)(C)C)C(=O)NC(C)(C)C(=O)N[C@H](/C=C/S(C)(=O)=O)CC(C)C)cc1` has a solubility (physchem) of 500 µM (≈ 307 µg/mL) and a remaining at 2 h (in vitro) of 100%.
In the case of `CC[C@H](C)[C@H](NC(=O)OCc1ccccc1)C(=O)N1CCC[C@H]1C(=O)N[C@@H](C)C(=O)N[C@H](/C=C/S(C)(=O)=O)CC(C)C`, the IC50 (Cathepsin B) is reported as 23 µM and the IC50 (Cathepsin S) is reported as 13 µM.
In the case of `CC[C@H](C)[C@H](NC(=O)OCc1ccccc1)C(=O)N[C@@H](CCC(=O)NC(C)(C)CC)C(=O)N[C@@H](C)C(=O)N[C@H](/C=C/S(C)(=O)=O)CC(C)C`, the solubility (physchem) is reported as 20 µM (≈ 14.2 µg/mL), the IC50 (PC-3) is reported as 0.55 µM and the remaining at 2 h (in vitro) is reported as 83%.
For `CC[C@H](C)[C@H](NC(=O)OCc1ccccc1)C(=O)N[C@@H](CS(C)(=O)=O)C(=O)N[C@@H](C)C(=O)N[C@H](/C=C/S(C)(=O)=O)CC(C)C`, the IC50 (Cathepsin B) was 140 µM and the IC50 (Cathepsin S) was 13 µM.
With `CC(C)C[C@@H](/C=C/S(C)(=O)=O)NC(=O)[C@H](CO)NC(=O)[C@H](CCC(=O)OC(C)(C)C)NS(=O)(=O)c1ccccc1` the IC50 (PC-3) was 4 µM.
For `CC[C@H](C)[C@H](NC(=O)OCc1ccccc1)C(=O)N[C@@H](CC(C)C)C(=O)N[C@@H](C)C(=O)N[C@H](/C=C/S(C)(=O)=O)CC(C)C`, the IC50 (Cathepsin B) was 5.8 µM, the IC50 (Cathepsin S) was 0.7 µM and the IC50 (PC-3) was 0.8 µM. For the same molecule, the remaining at 2 h (in vitro) was 66%.
With `CC(C)C[C@@H](/C=C/S(C)(=O)=O)NC(=O)CNC(=O)[C@H](CCC(=O)OC(C)(C)C)NC(=O)OCc1ccccc1` the IC50 (Cathepsin B) was > 150 µM and the IC50 (Cathepsin S) was 21 µM.
`CC(C)C[C@@H](C=O)NC(=O)[C@H](CC(C)C)NC(=O)[C@H](CC(C)C)NC(=O)OCc1ccccc1` [MG-132] (Cbz-Leu-Leu-Leu-aldehyde) gave a Ki (Cathepsin B) of 0.012 µM and an IC50 (PC-3) of 0.6 µM.
For `CC[C@H](C)[C@H](NC(=O)OCc1ccccc1)C(=O)N[C@@H](CCC(N)=O)C(=O)N[C@@H](C)C(=O)N[C@H](/C=C/S(C)(=O)=O)CC(C)C`, the IC50 (Cathepsin B) was 54 µM and the IC50 (Cathepsin S) was 48 µM.
With `CC(C)C[C@@H](/C=C/S(C)(=O)=O)NC(=O)[C@H](C)NC(=O)[C@H](CCC(=O)OC(C)(C)C)NC(=O)OCc1ccccc1` the solubility (physchem) was < 10 µM, the IC50 (Cathepsin B) was 20 µM and the IC50 (Cathepsin S) was 3 µM. It also gave an IC50 (PC-3) of 6.5 µM and a remaining at 2 h (in vitro) of 1%.
`CC(=O)N[C@@H](CCc1ccccc1)C(=O)N[C@@H](CC(C)C)C(=O)N[C@@H](Cc1ccccc1)C(=O)N[C@H](/C=C/S(C)(=O)=O)CC(C)C` showed an IC50 (Cathepsin B) of 0.85 µM, an IC50 (Cathepsin S) of 0.15 µM and an IC50 (PC-3) of 3 µM. It also gave a remaining at 2 h (in vitro) of 100%.
In the case of `Cc1ccc(S(=O)(=O)N[C@@H](CC(=O)NCC(C)(C)C)C(=O)N[C@@H](C)C(=O)N[C@@H](CC(C)C)C(=O)c2nnc(-c3ccc(N(C)C)cc3)o2)cc1`, the solubility (physchem) is reported as < 10 µM and the remaining at 2 h (in vitro) is reported as 72%.
Molecule `CC[C@H](C)[C@H](NC(=O)OCc1ccccc1)C(=O)N[C@@H](CCC(=O)NC(C)(C)C)C(=O)N[C@@H](C)C(=O)N[C@H](/C=C/S(C)(=O)=O)CC(C)C` has a solubility (physchem) of 57 µM (≈ 39.6 µg/mL), an IC50 (Cathepsin B) of 51 µM and an IC50 (Cathepsin S) of 3.3 µM. It also gave an IC50 (PC-3) of 5000 µM and a remaining at 2 h (in vitro) of 89%.
`CC(C)C[C@@H](C#N)NC(=O)[C@H](CC(C)C)NC(=O)[C@H](CC(C)C)NC(=O)OCc1ccccc1` showed a Ki (Cathepsin B) of 18 µM and a Ki (Cathepsin S) of 0.046 µM.
Work on `Cc1ccc(S(=O)(=O)N[C@@H](CC(=O)NCC(C)(C)C)C(=O)N[C@@H](C)C(=O)N[C@H](/C=C/S(C)(=O)=O)CC(C)C)cc1` yielded a solubility (physchem) of 470 µM (≈ 282 µg/mL) and a remaining at 2 h (in vitro) of 96%.
In the case of `CC(C)C[C@@H](/C=C/S(C)(=O)=O)NC(=O)[C@H](C)NC(=O)[C@H](CCC(=O)OC(C)(C)C)NC(=O)C(c1ccccc1)c1ccccc1`, the solubility (physchem) is reported as < 10 µM, the IC50 (PC-3) is reported as 0.5 µM and the remaining at 2 h (in vitro) is reported as 1%.
In the case of `CC(=O)N[C@@H](CCc1ccccc1)C(=O)N[C@@H](CC(C)C)C(=O)N[C@@H](C)C(=O)N[C@H](/C=C/S(C)(=O)=O)CC(C)C`, the IC50 (Cathepsin B) is reported as 1.6 µM and the IC50 (Cathepsin S) is reported as 6.9 µM.
For `CC(=O)N[C@@H](CCC(=O)OC(C)(C)C)C(=O)N[C@@H](C)C(=O)N[C@H](/C=C/S(C)(=O)=O)CC(C)C`, the IC50 (Cathepsin B) was 77 µM, the IC50 (Cathepsin S) was 170 µM and the IC50 (PC-3) was 7.5 µM.
In the case of `CC[C@H](C)[C@H](NC(=O)OCc1ccccc1)C(=O)N[C@@H](CCC(=O)OC(C)(C)C)C(=O)N[C@@H](C)C(=O)N[C@H](/C=C/S(C)(=O)=O)CC(C)C`, the solubility (physchem) is reported as < 10 µM, the IC50 (Cathepsin B) is reported as 29 µM and the IC50 (Cathepsin S) is reported as 36 µM. For the same molecule, the IC50 (PC-3) was 2 µM and the remaining at 2 h (in vitro) was 52%.
With `CC[C@H](C)[C@H](NC(=O)OCc1ccccc1)C(=O)N[C@@H](CCC(=O)NC(C)C)C(=O)N[C@@H](C)C(=O)N[C@H](/C=C/S(C)(=O)=O)CC(C)C` the IC50 (Cathepsin B) was > 150 µM, the IC50 (Cathepsin S) was 41 µM and the IC50 (PC-3) was 3000 µM. The remaining at 2 h (in vitro) was 89%.
In the case of `CC[C@H](C)[C@H](NC(=O)OCc1ccccc1)C(=O)N[C@@H](CCC(=O)OC(C)(C)C)C(=O)N[C@@H](C)C(=O)N[C@H](C=O)CC(C)C` (Cbz-IE(OtBu)AL-aldehyde), the IC50 (PC-3) is reported as 0.375 µM.
In the case of `Cc1cccc(S(=O)(=O)N[C@@H](CC(=O)NCC(C)(C)C)C(=O)N[C@@H](C)C(=O)N[C@@H](CC(C)C)C(=O)c2nnc(-c3ccccc3)o2)c1`, the solubility (physchem) is reported as < 10 µM and the remaining at 2 h (in vitro) is reported as 28%.
`Cc1ccc(S(=O)(=O)N[C@@H](CCC(=O)OC(C)(C)C)C(=O)N[C@@H](C)C(=O)N[C@H](/C=C/S(C)(=O)=O)CC(C)C)cc1` showed a solubility (physchem) of 48 µM (≈ 28.9 µg/mL), an IC50 (Cathepsin B) of 13 µM and an IC50 (Cathepsin S) of 67 µM. The IC50 (PC-3) was 0.5 µM and the remaining at 2 h (in vitro) was 7%.
`CC[C@H](C)[C@H](NC(=O)OCc1ccccc1)C(=O)N[C@@H](Cc1ccccc1)C(=O)N[C@@H](C)C(=O)N[C@H](/C=C/S(C)(=O)=O)CC(C)C` showed an IC50 (Cathepsin B) of 27 µM and an IC50 (Cathepsin S) of 9 µM.
For `CC(=O)N[C@@H](CCc1ccccc1)C(=O)N[C@@H](CC(C)C)C(=O)N[C@H](C)C(=O)N[C@H](/C=C/S(C)(=O)=O)CC(C)C`, the IC50 (Cathepsin B) was > 150 µM and the IC50 (Cathepsin S) was 77 µM.
Molecule `CC(C)C[C@@H](/C=C/S(C)(=O)=O)NC(=O)[C@H](C)NC(=O)[C@H](CCC(=O)OC(C)(C)C)NC(=O)c1ccccc1` has an IC50 (PC-3) of 1.75 µM.
In the case of `CC(=O)N[C@@H](CCc1ccccc1)C(=O)N[C@@H](CC(C)C)C(=O)NCC(=O)N[C@H](/C=C/S(C)(=O)=O)CC(C)C`, the IC50 (Cathepsin B) is reported as > 150 µM and the IC50 (Cathepsin S) is reported as 12 µM.
With `COC[C@H](NC(=O)[C@H](CC(=O)NCC(C)(C)C)NS(=O)(=O)c1ccc(C)cc1)C(=O)N[C@@H](CC(C)C)C(=O)c1nnc(-c2ccccc2)o1` the solubility (physchem) was 37 µM (≈ 25.9 µg/mL), the Ki (Cathepsin B) was 44 µM and the Ki (Cathepsin S) was 8.1 µM. It also gave a remaining at 2 h (in vitro) of 79%.
For `CC[C@H](C)[C@H](NC(=O)OCc1ccccc1)C(=O)N[C@@H](CCc1ccccc1)C(=O)N[C@@H](C)C(=O)N[C@H](/C=C/S(C)(=O)=O)CC(C)C`, the solubility (physchem) was < 10 µM, the IC50 (Cathepsin B) was 41 µM and the IC50 (Cathepsin S) was 10 µM. For the same molecule, the IC50 (PC-3) was 0.6 µM and the remaining at 2 h (in vitro) was 22%.
`CC[C@H](C)[C@H](NC(=O)OCc1ccccc1)C(=O)N[C@@H](CC(=O)OC(C)(C)C)C(=O)N[C@@H](C)C(=O)N[C@H](/C=C/S(C)(=O)=O)CC(C)C` gave an IC50 (PC-3) of 3.25 µM.
Work on `Cc1ccc(S(=O)(=O)N[C@@H](CC(=O)NCC(C)(C)C)C(=O)N[C@@H](C)C(=O)N[C@@H](CC(C)C)C(=O)c2nnc(-c3ccccc3)o2)cc1` yielded a solubility (physchem) of 13 µM (≈ 8.69 µg/mL), a Ki (Cathepsin B) of 72 µM and a Ki (Cathepsin S) of 39 µM. The remaining at 2 h (in vitro) was 86%.
For `Cc1ccc(S(=O)(=O)N[C@@H](CC(=O)NCC(C)(C)C)C(=O)N[C@@H](CO)C(=O)N[C@H](/C=C/S(C)(=O)=O)CC(C)C)cc1`, the solubility (physchem) was 381 µM (≈ 235 µg/mL), the IC50 (Cathepsin B) was > 150 µM and the IC50 (Cathepsin S) was > 150 µM. The IC50 (PC-3) was 2.4 µM and the remaining at 2 h (in vitro) was 99%.
For `CC[C@H](C)[C@H](NC(=O)OCc1ccccc1)C(=O)N[C@@H](CS(=O)(=O)Cc1ccccc1)C(=O)N[C@@H](C)C(=O)N[C@H](/C=C/S(C)(=O)=O)CC(C)C`, the IC50 (Cathepsin B) was > 150 µM and the IC50 (Cathepsin S) was 12 µM.
